Results: patent US5013841A, “Oxo quinoline derivatives” (Dainippon Pharmaceutical Co., Ltd., priority 1987, dated 1991)
Values after ≈ are worked out from the molar mass of the structure shown. Read-outs that look alike come from different tables or passages of the source. One block for each compound: values may come before it.

Assays:
[1] = Urinary excretion in mice (thin-layer cup-plated method, Escherichia coli Kp indicator); assay type: in vivo; conditions: mouse, urine, oral, 5 mg/kg, read-out: Urinary recovery for 24 hours
Protocol: A suspension containing each of compounds was orally administered to mice at a dose of 5 mg/kg. Urine was collected over a period of 24 hours after adminstration. The levels of the compounds in urine were determined by the thin-layer cup-plated method using Escherichia coli Kp as an indicator organism.

[2] = test system: Streptococcus pneumoniae 1 Neufeld; assay type: in vivo, Streptococcus pneumoniae (male mice, Std-ddY); conditions: 336 h, read-out: median effective dose (ED50)
M. pneumoniae Mac = assay: Antimycoplasma activity (twofold agar dilution method); assay type: cell-based, Mycoplasma pneumoniae; conditions: Mycoplasmoides pneumoniae, 168 h, read-out: minimum inhibitory concentration (MIC)
Protocol: (§1) The figures in the table show minimum inhibitory concentrations (MIC), (μg/ml), calculated for free base.
(§2) Minimum inhibitory concentrations (MIC) were determined by the twofold agar dilution method. The media used were Chanock broth and agar PPLD broth and agar (Difco) supplemented with 20% horse serum and 10% fresh yeast extract). A 2-3 day broth culture of organisms was diluted with Chanock broth to a cell density of about 10^6 cells/ml. One loopful (about […]) of the organism dilution was spotted onto 10-ml drug containing Chanock agar in petri dishes using a multiple inoculator (Cathra International). The petri dishes were incubated at 37° C. for 7 and 2 days for Mycoplasma pneumoniae and other Mycoplasma spp. respectively. Incubation was performed anaerobically using the Gaspak anaerobic system (BBL) for M. buccale, M. fermentans, M. hominis, M. orale and M. salivarium, and aerobically for other Mycoplasma spp. The MIC was defined as the lowest compound concentration at which no growth of organism was detected.

[3] = test system: Staphylococcus aureus 50774; assay type: in vivo, Staphylococcus aureus (male mice, Std-ddY); conditions: Staphylococcus aureus, 50774, po, 336 h, read-out: median effective dose (ED50)
Excerpt: Staphylococcus aureus 50774
Intravenous infection with 5×10^8 cells per mouse suspended in saline.
For 7 days for other organisms.

S. aureus No. 80 = assay: In vitro antibacterial activity (twofold agar-dilution method); assay type: cell-based; conditions: Staphylococcus aureus, NO.80, 20 h, read-out: minimum inhibitory concentration (MIC)
Protocol: (§3) The figures in the table show minimum inhibitory concentrations (MIC) (μg/ml), calculated for free base. The minimum inhibitory concentration was determined by the twofold agar-dilution method, which was recommended by Japan Society of Chemotherapy (Chemotherapy, 29(1), 76(1981)), using Muller-Hinton agar. One loopful of an overnight culture of test organisms in Mueller-Hinton broth was inoculated onto 10-ml drug-containing agar layers in petri dishes. Bacterial inocula contained approximately 10^6 colonyl-formingunits. Bacterial growth was observed after 20-hour incubation at 37° C. The MIC was defined as the lowest drug concentration which prevented visible bacterial growth.

E. coli NIHJ JC-2 = assay: as above; assay type: cell-based; conditions: Escherichia coli, NIHJJC2, 20 h, read-out: minimum inhibitory concentration (MIC)
Protocol: as §3

Flavobacterium sp P-7201 = assay: as above; assay type: cell-based; conditions: Flavobacterium, P7201, 20 h, read-out: minimum inhibitory concentration (MIC)
Protocol: as §3

S. marcescens IFO 3736 = assay: as above; assay type: cell-based; conditions: Serratia marcescens, IFO3736, 20 h, read-out: minimum inhibitory concentration (MIC)
Protocol: as §3

E. coli P-5101 = assay: as above; assay type: cell-based; conditions: Escherichia coli, P5101, 20 h, read-out: minimum inhibitory concentration (MIC)
Protocol: as §3

S. aureus 209 JC-1 = assay: as above; assay type: cell-based; conditions: Staphylococcus aureus, 209JC1, 20 h, read-out: minimum inhibitory concentration (MIC)
Protocol: as §3

P. Aeruginosa 12 = assay: as above; assay type: cell-based; conditions: Pseudomonas aeruginosa, 20 h, read-out: minimum inhibitory concentration (MIC)
Protocol: as §3

S. pyogenes Cook = assay: as above; assay type: cell-based; conditions: Streptococcus pyogenes, 20 h, 37° C., calculated for free base, read-out: minimum inhibitory concentration (MIC)
Protocol: as §3

S. epidermidis No. 8 = assay: as above; assay type: cell-based; conditions: Staphylococcus epidermidis, NO.8, 20 h, read-out: minimum inhibitory concentration (MIC)
Protocol: as §3

S. aureus Terajima = assay: as above; assay type: cell-based; conditions: Staphylococcus aureus, 20 h, read-out: minimum inhibitory concentration (MIC)
Protocol: as §3

M. arginini G-230 = assay: Antimycoplasma activity (twofold agar dilution method); assay type: cell-based; conditions: 48 h, read-out: minimum inhibitory concentration (MIC)
Protocol: as §1, §2

M. hyorhinis BST-7 = assay: as above; assay type: cell-based; conditions: Mesomycoplasma hyorhinis, BST7, 48 h, read-out: minimum inhibitory concentration (MIC)
Protocol: as §1, §2

M. hominis PG-21 = assay: as above; assay type: cell-based; conditions: Metamycoplasma hominis, PG21, 48 h, read-out: minimum inhibitory concentration (MIC)
Protocol: as §1, §2

M. buccale CH-20249 = assay: as above; assay type: cell-based; conditions: 48 h, read-out: minimum inhibitory concentration (MIC)
Protocol: as §1, §2

M. fermentans PG-18 = assay: as above; assay type: cell-based; conditions: Mycoplasmopsis fermentans, PG18, 48 h, read-out: minimum inhibitory concentration (MIC)
Protocol: as §1, §2

M. orale CH-19299 = assay: as above; assay type: cell-based; conditions: 48 h, read-out: minimum inhibitory concentration (MIC)
Protocol: as §1, §2

A. laidlawii PG-8 = assay: as above; assay type: cell-based; conditions: Acholeplasma laidlawii, PG8, 48 h, read-out: minimum inhibitory concentration (MIC)
Protocol: as §1, §2

M. salivarium PG-20 = assay: as above; assay type: cell-based; conditions: 48 h, read-out: minimum inhibitory concentration (MIC)
Protocol: as §1, §2

[4] = test system: C. Trachomatics G/ur 1317; assay: Antichlamydia activity (inclusion bodies in McCoy cells); assay type: cell-based; conditions: 36° C., 40-48 h, calculated for free base, read-out: minimum inhibitory concentration (MIC)
Protocol: (§4) Minimum inhibitory concentrations (MIC) were determined as follows. McCoy cells were freshly cultured in Eagle's minimum essential medium (EMEM) (Flow) supplemented with 4% fetal bovine serum and 0.03% L-glutamine. The cells were trypsinized and suspended in the same culture medium at a cell concentration of 1-2×10^5 cells/ml. One ml of the cell suspension was pipetted into flat-bottomed plastic tubes (14 mm in diameter) containing a cover slip (12 mm in diameter). The tubes were incubated in 5% CO2 -air at 36° C. for 20 hours. One-half ml of a chlamydial suspension (ca. 1-4×10^3 inclusion body forming units) was added into each tube, which was then centrifuged at 1500×g for 60 minutes. The tubes were incubated for 1 hour at 36° C. The medium was changed with 1 ml of EMEM supplemented with 8% fetal bovine serum, 0.03% L-blutamine, 1μg/ml cycloheximide and 0.5% glucose, and containing drugs at various concentrations. After further incubation at 36° C. for 40-48 hours, the cells on the cover glasses were stained with the Giemsa's solution. […] The MIC was defined as the lowest drug concentration where there were no inclusion bodies in all the cells on the cover slip.

[5] = test system: C. Trachomatics G/ur 1467; assay: as above; assay type: cell-based; conditions: 36° C., 40-48 h, calculated for free base, read-out: minimum inhibitory concentration (MIC)
Protocol: as §4

[6] = test system: C. Trachomatics G/ur 1483; assay: as above; assay type: cell-based; conditions: 36° C., 40-48 h, calculated for free base, read-out: minimum inhibitory concentration (MIC)
Protocol: as §4

C. Trachomatics G/ur 931 = assay: as above; assay type: cell-based; conditions: 36° C., 40-48 h, calculated for free base, read-out: minimum inhibitory concentration (MIC)
Protocol: as §4

[7] = test system: Streptococcus pyogenes A65; conditions: A65, in Mus musculus, po, 168 h, read-out: median effective dose (ED50)

dose excreted at 24 h [1]: 4.51%
Structure (SMILES): CC1CN(c2c(F)c(N)c3c(=O)c(C(=O)O)cn(C4CC4)c3c2F)CC(C)N1 (centres unmarked) [Compound C, 5-amino-1-cyclopropyl-6,8-difluoro-7-(3,5-dimethyl-1-piperazinyl)-1,4-dihydro-4-oxoquinoline-3-carboxylic acid, reference compound]

Structure (SMILES): O=C(O)c1cn(C2CC2)c2cc(N3CCNCC3)c(F)cc2c1=O [Compound A, reference compound]
ED50 ([2]; po): 31.3 mg/kg
MIC (M. pneumoniae Mac): 0.78 mg/L (≈ 2.35 µM)
ED50 [3]: 8.24 mg/kg
MIC (S. aureus No. 80): 0.39 mg/L (≈ 1.18 µM)
MIC (E. coli NIHJ JC-2): 0.0063 mg/L (≈ 0.019 µM)
MIC (Flavobacterium sp P-7201): 0.39 mg/L (≈ 1.18 µM)
MIC (S. marcescens IFO 3736): 0.05 mg/L (≈ 0.151 µM)
MIC (E. coli P-5101): 0.0063 mg/L (≈ 0.019 µM)
MIC (S. aureus 209 JC-1): 0.1 mg/L (≈ 0.302 µM)
MIC (P. Aeruginosa 12): 0.1 mg/L (≈ 0.302 µM)
MIC (S. pyogenes Cook): 0.2 mg/L (≈ 0.604 µM)
MIC (S. epidermidis No. 8): 0.1 mg/L (≈ 0.302 µM)
MIC (S. aureus Terajima): 0.1 mg/L (≈ 0.302 µM)
MIC (M. arginini G-230): 0.39 mg/L (≈ 1.18 µM)
MIC (M. hyorhinis BST-7): 0.39 mg/L (≈ 1.18 µM)
MIC (M. hominis PG-21): 1.56 mg/L (≈ 4.71 µM)
MIC (M. buccale CH-20249): 0.39 mg/L (≈ 1.18 µM)
MIC (M. fermentans PG-18): 0.2 mg/L (≈ 0.604 µM)
MIC (M. orale CH-19299): 1.56 mg/L (≈ 4.71 µM)
MIC (A. laidlawii PG-8): 0.39 mg/L (≈ 1.18 µM)
MIC (M. salivarium PG-20): 3.13 mg/L (≈ 9.45 µM)
MIC [4]: 2 mg/L (≈ 6.04 µM)
MIC [5]: 1 mg/L (≈ 3.02 µM)
MIC [6]: 1 mg/L (≈ 3.02 µM)
MIC (C. Trachomatics G/ur 931): 1 mg/L (≈ 3.02 µM)

Structure (SMILES): Nc1c(F)c(N2CCNCC2)c(F)c2c1c(=O)c(C(=O)O)cn2C1CC1 [Compound B, 5-amino-1-cyclopropyl-6,8-difluoro-7-(1-piperazinyl)-1,4-dihydro-4-oxoquinoline-3-carboxylic acid, reference compound]
ED50 ([2]; mice, oral, four times (immediately, 6, 24 and 30 h after intraperitoneal infection), 14 days, calculated for free base): 20.8 mg/kg
MIC (S. aureus No. 80): 0.05 mg/L (≈ 0.137 µM)
MIC (E. coli NIHJ JC-2): 0.0063 mg/L (≈ 0.0173 µM)
MIC (Flavobacterium sp P-7201): 0.1 mg/L (≈ 0.274 µM)
MIC (S. marcescens IFO 3736): 0.1 mg/L (≈ 0.274 µM)
MIC (E. coli P-5101): 0.0063 mg/L (≈ 0.0173 µM)
MIC (S. aureus 209 JC-1): 0.05 mg/L (≈ 0.137 µM)
MIC (P. Aeruginosa 12): 0.1 mg/L (≈ 0.274 µM)
MIC (S. pyogenes Cook): 0.2 mg/L (≈ 0.549 µM)
MIC (S. epidermidis No. 8): 0.05 mg/L (≈ 0.137 µM)
MIC (S. aureus Terajima; S. aureus Terajima, agar dilution, 37° C., calculated for free base): 0.025 mg/L (≈ 0.0686 µM)
ED50 [7]: > 50 mg/kg
